# Experimental data from publication PMC12250302, “Synthesis, Antimicrobial Activities, and Model of Action of Novel Tetralone Derivatives Containing Aminoguanidinium Moiety” (International Journal of Molecular Sciences, 2025).
# What was measured:
# S. aureus ATCC 29213 = assay: MIC and MBC testing, broth microdilution; type: cell-based, Staphylococcus aureus; details: Staphylococcus aureus, ATCC29213, S. aureus ATCC 29213
# How it was run: (§1)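 Visible growth was scored after 18 h at 37 °C, and the MIC was taken as the lowest compound concentration showing none. Bacteria were grown to logarithmic phase in MH broth and diluted to 1 × 10^6 CFU/mL before combining with twofold compound dilutions.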
# A. baumannii ATCC 19606 = assay: MIC and MBC testing, broth microdilution; type: cell-based, Acinetobacter baumannii; details: Acinetobacter baumannii
# How it was run: as §1
# E. coli ATCC 25922 = assay: MIC and MBC testing, broth microdilution; type: cell-based, Escherichia coli; details: Escherichia coli
# How it was run: as §1
# [1] = test system: human colon adenocarcinoma cell line (Caco-2); assay: Cytotoxicity, CCK-8 method; type: cell-based
# Method: (§2) The CCK-8 method was used to evaluate the toxicity of 2D to four cell lines (lung cancer cell line (A549), human liver cell line (HepG2), human embryonic kidney 293T cells (HEK 293-T), and human colon adenocarcinoma cell line (Caco-2)). Cells with a density of 1 × 10^5 cells/well were added to 96-well plates and then incubated for 24 h at 5% CO2 and 37 °C. Subsequently, after treatment with different concentrations of 2D for 24 h, the CCK-8 kit was added according to the prescribed procedure. Following an incubation at 37 °C for 0.5 h, the absorbances at 450 nm were detected. The […] was calculated according to the following formula:Cytotoxic (%) = (Atest/Acontrol) × 100%(2)
# [2] = test system: human embryonic kidney 293T cells (HEK 293-T); assay: Cytotoxicity, CCK-8 method; type: cell-based
# Method: as §2
# [3] = test system: human liver cell line (HepG2); assay: Cytotoxicity, CCK-8 method; type: cell-based
# Method: as §2
# [4] = test system: lung cancer cell line (A549); assay: Cytotoxicity, CCK-8 method; type: cell-based
# Method: as §2
# MRSA-2 biofilm = assay: Biofilm formation inhibition assay (crystal violet); type: cell-based, Staphylococcus aureus; details: MRSA-2
# Method: The effect of 2D on the biofilm formation of MRSA was evaluated. MRSA-2 was cultured in MH broth for a period of 3–5 h, after which it was diluted to a density of 1 × 10^6 CFU/mL with MH broth. […] After the removal of the suspended bacteria, the well plates were washed thrice with PBS. Then, 150 μL of methanol was added and fixed for 30 min. Subsequent to air-drying, 150 μL of a 0.1% crystal violet aqueous solution was added. Following a 15 min staining period, the excess crystal violet was removed by rinsing with flowing water. Finally, 150 μL of anhydrous ethanol was added and the mixture was incubated for 20 min. The optical density at 575 nm was detected.
# MRSA-2 [5] = assay: Bactericidal time-kill kinetics assay; type: cell-based, Staphylococcus aureus; details: 2, 4 and 8 µg/mL, 0-24 h
# Method: (§3) S. aureus (ATCC 29213) and MRSA-2 were cultivated in MH broth until the logarithmic growth phase and then diluted to 1 × 10^7 CFU/mL, respectively. […] After a specified time interval (0, 1, 2, 4, 8, 12, and 24 h), the culture suspension was serially diluted in 0.9% saline over a concentration range from 10^−1 to 10^−9. A volume of 100 μL of the obtained diluent and culture solution was dispensed onto a sterile MH agar plate. The plate was subsequently cultured at 37 °C for a duration of 24 h. The total number of colonies was enumerated and expressed as log10(CFU/mL).
# S. aureus (ATCC 29213) = assay: Bactericidal time-kill kinetics assay; type: cell-based, Staphylococcus aureus; details: 2, 4 and 8 µg/mL, 0-24 h
# Method: as §3
# MRSA-2 [6] = assay: Membrane depolarization assay, DiSC3(5); type: cell-based, Staphylococcus aureus; details: 2, 4, and 8 μg/mL
# Method: MRSA-2 was cultivated in MH broth, with a final concentration of 1 × 10^8 CFU/mL. After centrifugation, the supernatant was discarded. The bacterial precipitate was washed thrice and resuspended with PBS. Subsequently, the bacterial resuspension (180 μL) and the DiSC5 (10 μL, 3 μM) were incubated in the dark for 30 min. The fluorescence intensity was measured at 2 min intervals for a period of 10 min. After the fluorescence intensity was stabilized, 10 μL of 2D (final concentrations of 1, 2, 4, and 8 μg/mL) was added, respectively. The fluorescence intensity was measured at 2 min intervals for a total duration of 30 min. The excitation/emission wavelength was 622/670 nm.
# MRSA-2 [7] = type: cell-based, Staphylococcus aureus; details: not told
# Method: MRSA-2 bacterial precipitates in the logarithmic growth phase were collected by centrifugation, washed, and resuspended in PBS to a density of 1 × 10^6 CFU/mL. PI (10 μM, 40 μL) was added to a black 96-well plate along with 150 μL of bacterial suspension. After an incubation period of 30 min, fluorescence was detected at excitation wavelengths of 535 nm and emission wavelengths of 617 nm at 5 min intervals until a stable state was reached.
smiles,measurement,setting,value
"[H]/N=C(\N)NN=C1CCCc2cc(OCCCCCCC)ccc21 [Compound 2D, (E)-2-(6-(heptyloxy)-3,4-dihydronaphthalen-1(2H)-ylidene)hydrazine-1-carboximidamide]",MIC,"S. aureus ATCC 29213; 18 h, read-out: MIC",0.5 µg/mL
same,MBC,S. aureus ATCC 29213; read-out: MBC,4 µg/mL
same,MIC,"A. baumannii ATCC 19606; ATCC19606, 18 h, read-out: MIC",4 µg/mL
same,MBC,"A. baumannii ATCC 19606; ATCC19606, read-out: MBC",16 µg/mL
same,MIC,"E. coli ATCC 25922; ATCC25922, 18 h, read-out: MIC",4 µg/mL
same,MBC,"E. coli ATCC 25922; ATCC25922, read-out: MBC",8 µg/mL
same,IC50,"[1]; Homo sapiens, CaCo-2, 24 h, CCK-8",9.86 µg/mL
same,Selectivity index (SI),[1]; SI = IC50 (CaCo-2)/MIC ATCC 29213,19.72
same,IC50,"[2]; Homo sapiens, HEK 293-T, 24 h, CCK-8",13.1 µg/mL
same,Selectivity index (SI),[2]; SI = IC50 (HEK 293-T)/MIC ATCC 29213,26.18
same,IC50,"[3]; Homo sapiens, HepG2, 24 h, CCK-8",6 µg/mL
same,Selectivity index (SI),[3]; SI = IC50 (HepG2)/MIC ATCC 29213,12.00
same,IC50,"[4]; Homo sapiens, A549, 24 h, CCK-8",3.57 µg/mL
same,Selectivity index (SI),[4]; SI = IC50 (A549)/MIC ATCC 29213,7.14
same,reduction of biofilm formation,"MRSA-2 biofilm; 1 μg/mL (1MIC), 24 h",more than 92%
same,inhibition of biofilm formation,MRSA-2 biofilm; 2–32 μg/mL (2-32MIC),almost completely inhibited the formation of biofilm
same,inhibition at 0.25 µg/mL,"MRSA-2 biofilm; Staphylococcus aureus, 0.25 μg/mL (1/4MIC), 24 h, read-out: inhibition rate of biofilm formation",~18.5%
same,inhibition at 0.5 µg/mL,"MRSA-2 biofilm; Staphylococcus aureus, 0.5 μg/mL (1/2MIC), 24 h, read-out: inhibition rate of biofilm formation",~37.8%
same,time-kill response,MRSA-2 [5],concentration-dependent and time-dependent bactericidal response
same,time-kill response,S. aureus (ATCC 29213),concentration-dependent and time-dependent bactericidal response
same,DiSC3(5) fluorescence intensity (depolarization),MRSA-2 [6],increased instantaneously
same,PI fluorescence intensity (inner membrane permeability),MRSA-2 [7],significantly enhanced
